Drawing on PubChem BioAssay (NCI), this text covers GI50 and TGI for eight molecules.

Several values for one entry are separate records, joined by “and”; a condition that tells them apart may be missing. Identical values can stand only once.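 Five compound concentrations were applied to cells in 96-well plates for 48 hours; endpoints were derived by simple linear interpolation of the resulting dose-response curve. The concentration for 50% growth inhibition is given as GI50. TGI denotes the concentration required for complete inhibition of growth.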 A value given as a limit tells only on which side of the number the result lay.

Among the test systems are HCC-2998 colon; NCI-H226 lung; LOX IMVI melanoma; SNB-19 CNS; TK-10 renal; NCI/ADR-RES ovarian; SF-268 CNS; SF-295 CNS; CCRF-CEM leukemia; RXF 393 renal.
Test in all cases: inhibition of tumour cell growth, NCI panel, 48 h

Consider `CC(=O)Nc1ccc(Sc2ccc([N+](=O)[O-])o2)cc1`, for which the GI50 was 1.9 µM in the test on HCC-2998 colon; 2.88 µM with NCI-H226 lung; 1.45 µM in the test with LOX IMVI melanoma; 10.1 µM in the test with SNB-19 CNS; 2.13 µM in the test with TK-10 renal; 2.88 µM in the test on NCI/ADR-RES ovarian. In addition, the GI50 with SF-268 CNS was 3.16 µM; with SF-295 CNS, 10.4 µM; in the test with CCRF-CEM leukemia, 0.886 µM; in the test with RXF 393 renal, 0.929 µM. Also, the TGI with HCC-2998 colon amounted to 3.52 µM; with NCI-H226 lung it was 8.7 µM; with LOX IMVI melanoma, 3.05 µM; in the test with SNB-19 CNS, 23.2 µM; in the test with TK-10 renal it was 5.99 µM; with NCI/ADR-RES ovarian, 11.3 µM. Further, the TGI with SF-268 CNS was 11.8 µM; in the test with SF-295 CNS it was 23.5 µM; with CCRF-CEM leukemia, 3.93 µM; with RXF 393 renal, 3.46 µM.
For the molecule `O=C1C(Br)=CC2(C=C1Br)CCN=c1c2c(O)c2nc3ccccc3c3ccnc1c23`, the GI50 in the test on HCC-2998 colon is 9.78 µM; with LOX IMVI melanoma it was 1.24 µM; with SNB-19 CNS it was 4.59 µM; in the test with TK-10 renal, 3.47 µM; with NCI/ADR-RES ovarian it was 2.04 µM; in the test with SF-268 CNS, 0.672 µM. The GI50 is 5.97 µM with SF-295 CNS, 0.132 µM with CCRF-CEM leukemia and 1.11 µM with RXF 393 renal. In addition, the TGI was determined as 22.3 µM with HCC-2998 colon; 4.35 µM with LOX IMVI melanoma; 12.1 µM with SNB-19 CNS; 10.3 µM with TK-10 renal; 29.2 µM with NCI/ADR-RES ovarian; 1.91 µM in the test on SF-268 CNS. Moreover, the TGI with SF-295 CNS came to 19.3 µM; in the test with CCRF-CEM leukemia it was 0.612 µM; with RXF 393 renal, 4.36 µM.
With `C=C1C[C@](OC)([C@H](O)C(=O)N[C@@H](OC)[C@@H]2C[C@@H](O)C(C)(C)[C@@H](C[C@@H](COC)OC)O2)O[C@H](C)[C@@H]1C`, the GI50 was 0.00101 µM in the test with HCC-2998 colon; 0.00202 µM in the test on NCI-H226 lung; 0.00121 µM with LOX IMVI melanoma; 0.00149 µM in the test with SNB-19 CNS; 0.00141 µM with TK-10 renal; 0.0141 µM and 0.0297 µM in the test on NCI/ADR-RES ovarian. Besides, the GI50 is 0.00195 µM with SF-268 CNS, 0.000353 µM in the test with SF-295 CNS, 0.0168 µM with CCRF-CEM leukemia and 0.00159 µM with RXF 393 renal. Further, the TGI with HCC-2998 colon was 0.00285 µM; in the test with NCI-H226 lung it was 0.00582 µM; in the test on LOX IMVI melanoma, 0.00295 µM; in the test with SNB-19 CNS it was 0.00645 µM; in the test with TK-10 renal it was 0.00388 µM; in the test with NCI/ADR-RES ovarian, 0.142 µM and 0.314 µM. Besides, the TGI with SF-268 CNS turned out to be 0.00538 µM; in the test with SF-295 CNS it was 0.00181 µM; in the test with CCRF-CEM leukemia, 0.361 µM; in the test on RXF 393 renal, 0.00465 µM.
Turning to `O=C(O)C1C(C(=O)Nc2ccc3c(c2)Cc2ccccc2-3)C2(Cl)C(Cl)=C(Cl)C1(Cl)C2(Cl)Cl` (stereo unspecified), the TGI with HCC-2998 colon was 34.8 µM; with NCI-H226 lung, 88 µM; in the test on LOX IMVI melanoma, 32.3 µM; in the test on SNB-19 CNS, greater than 100 µM; in the test with TK-10 renal, 68.1 µM; in the test with NCI/ADR-RES ovarian it was greater than 100 µM. The TGI was 64.5 µM in the test with SF-268 CNS, greater than 100 µM with SF-295 CNS, 38 µM in the test with CCRF-CEM leukemia and 43.1 µM with RXF 393 renal.
Take `ClC1=C(Cl)C(Cl)=C(Cl)C1=C/C=C/c1ccccc1`: the GI50 was 0.229 µM in the test on HCC-2998 colon; 0.236 µM in the test with NCI-H226 lung; 0.184 µM in the test on LOX IMVI melanoma; 0.59 µM in the test with SNB-19 CNS; 0.562 µM with TK-10 renal; 0.393 µM with NCI/ADR-RES ovarian. In addition, the GI50 in the test with SF-268 CNS is 0.261 µM; in the test with SF-295 CNS, 0.311 µM; with CCRF-CEM leukemia, 0.306 µM; in the test on RXF 393 renal, 0.186 µM. Besides, the TGI in the test on HCC-2998 colon was found to be 0.464 µM; in the test with NCI-H226 lung, 0.653 µM; in the test on LOX IMVI melanoma it was 0.407 µM; with SNB-19 CNS it was 2.44 µM; in the test with TK-10 renal, 2.04 µM; in the test on SF-268 CNS, 1.51 µM. For the same molecule, the TGI with SF-295 CNS was found to be 1.02 µM; with RXF 393 renal it was 0.36 µM.
For the molecule `NC(CSC(c1ccccc1)(c1ccccc1)c1ccc(Cl)cc1)C(=O)O` (stereo unspecified), the GI50 with HCC-2998 colon is 0.276 µM; in the test with NCI-H226 lung, 5.11 µM; with LOX IMVI melanoma, 0.682 µM; in the test on SNB-19 CNS, 0.569 µM; with TK-10 renal, 13.5 µM; with NCI/ADR-RES ovarian it was 0.712 µM. The GI50 with SF-268 CNS is 0.399 µM; in the test with SF-295 CNS, 0.216 µM; with CCRF-CEM leukemia it was 0.386 µM; in the test with RXF 393 renal, 0.0594 µM. For the same molecule, the TGI was found to be 2.77 µM in the test with HCC-2998 colon; 49 µM in the test on NCI-H226 lung; 36.3 µM in the test with LOX IMVI melanoma; 33.2 µM in the test with SNB-19 CNS; 64.7 µM with TK-10 renal; 7.3 µM in the test with NCI/ADR-RES ovarian. Besides, the TGI turned out to be 26.5 µM with SF-268 CNS, 3.57 µM in the test on SF-295 CNS, 40 µM in the test with CCRF-CEM leukemia and 4.52 µM in the test with RXF 393 renal.
For the molecule `COc1cc(NCCCCN=C(N)NC(N)=NC(C)C)c2ncccc2c1`, the GI50 with HCC-2998 colon was 2.52 µM; in the test with NCI-H226 lung, 27 µM; with LOX IMVI melanoma, 3.68 µM; in the test on SNB-19 CNS it was 9.86 µM; in the test with TK-10 renal, 10.8 µM; in the test on NCI/ADR-RES ovarian it was greater than 100 µM. For the same molecule, the GI50 in the test with SF-268 CNS is 3.83 µM; in the test with SF-295 CNS it was 23 µM; in the test on CCRF-CEM leukemia, 4.57 µM; in the test on RXF 393 renal, greater than 47 µM. Further, the TGI in the test with HCC-2998 colon was 14.2 µM; in the test with NCI-H226 lung it was greater than 100 µM; with LOX IMVI melanoma, 15.5 µM; in the test with SNB-19 CNS it was 26.3 µM; in the test with TK-10 renal, 43.3 µM; in the test with NCI/ADR-RES ovarian it was greater than 100 µM. Also, the TGI with SF-268 CNS is 17.9 µM; with SF-295 CNS it was greater than 91.1 µM; in the test on CCRF-CEM leukemia it was 27.3 µM; in the test with RXF 393 renal, greater than 100 µM.
For `CC(=O)c1ccc(NC(=O)CSc2nnc(-c3cc(-c4ccc(C)cc4)nc4ccccc34)o2)cc1`, the GI50 was greater than 100 µM in the test on HCC-2998 colon; 2.39 µM in the test on NCI-H226 lung; 2.64 µM with LOX IMVI melanoma; 3.87 µM in the test with SNB-19 CNS; 1.99 µM in the test on TK-10 renal; 3.14 µM in the test with NCI/ADR-RES ovarian. In addition, the GI50 is 3.12 µM in the test with SF-268 CNS, 2.18 µM with SF-295 CNS, 4.03 µM in the test with CCRF-CEM leukemia and 2.01 µM with RXF 393 renal. Moreover, the TGI in the test on HCC-2998 colon is greater than 100 µM; with NCI-H226 lung, 6.37 µM; in the test with LOX IMVI melanoma, 9.09 µM; in the test with SNB-19 CNS it was 19.3 µM; with TK-10 renal it was 4.89 µM; with NCI/ADR-RES ovarian it was greater than 100 µM. Moreover, the TGI with SF-268 CNS was greater than 100 µM; in the test on SF-295 CNS, 6.08 µM; in the test with CCRF-CEM leukemia, greater than 100 µM; in the test with RXF 393 renal it was 4.26 µM.
